Target: T1, Src (p60^c-src, partially purified) (Homo sapiens, UniProt P12931)
T1 construct: purchased UBI, Upstate Biotech, Inc
Test: SRC-Inhibitor-Assay (time-resolved fluorescence kinase assay)
Format: biochemical
Settings: ATP 5 μM; peptide 10 μM; enzyme 2.5 U/ml; enzyme pre-incubated with inhibitor 15 min at 15° C.
Description: The activity of the compounds according to this invention as inhibitors for the src-family tyrosine kinases was shown by using the following assay.
SRC-Inhibitor-Assay Parameters:
• whereby both peptides were synthesized by an optimized solid phase peptide synthesis protocol (Merrifield, Fed. Proc. Fed. Amer. Soc. Exp. Biol. 21 (1962) 412) on a Zinsser SMP350 peptide synthesizer. Shortly, the peptide was assembled on […] (22.8 μmol scale) of a Rink-Linker modified polystyrene solid phase by repeatedly conjugating an twenty fold excess of amino acids each protected by temporary piperidine labile Fmoc- and permanent acid labile tert-Bu-, BOC— and O-tert-Bu-groups depending on the side chain function. The substrate sequence AEEEIYGEFEAKKKK was N-terminal additionally mounted with the spacer amino acids Aminocaprylic acid and Glycin. After cleavage of the N-terminal temporary protecting group the still attached and protected peptide was labeled with a 1.5 fold amount of LightCycler-Red 640-N-hydroxy succinimide ester (purchased from Roche Diagnostics GmbH) and triethylamine. After 3 hrs. the resin washed with Dimethylformamide and Isopropanol until the eluates of the blue resin got colourless. […] The substrate was finally isolated by a preparative reverse phase HPLC purification. The purification yielded 12.2 mg RP-HPLC single peak pure blue material (lyophilisate). The identity was proven by MALDI mass spectroscopy [2720.0]. • Enzymes: Upstate Src (p60^c-src, partially purified) were purchased from UBI, Upstate Biotech, Inc.
Time-resolved Fluorescence Assay: Reader: Perkin Elmer, Wallac Viktor 1420-040 multilabel counter; Liquid handling system: Beckman Coulter, Biomek 2000.
ATP, Tween™ 20, 4-(2-hydroxyethyl)-1-piperazineethanesulfonic acid (HEPES) were purchased from Roche Molecular Biochemicals, MgCl2 and MnCl2 were purchased from Merck Eurolab, Tris(2-carboxyethyl)phosphine hydrochloride (TCEP) was purchased from Pierce, 384 Well low volume fluorescence plates was purchased from Falcon.
At first the enzyme is pre-incubated for 15 min. at 15° C. in aqueous solution with corresponding amounts of inhibitors according to this invention. Then the phosphorylation reaction is started by adding a reaction mixture, containing ATP, Peptide and PT66, and subsequent shaking. The proceeding of this reaction is immediately monitored using time resolved fluorescence spectroscopy in a suitable well plate reader.
The IC50-values can be obtained from the reaction rates by using a non-linear curve fit (XLfit software (ID Business Solution Ltd., Guilford, Surrey, UK))

T1 sequence (P12931 whole entry): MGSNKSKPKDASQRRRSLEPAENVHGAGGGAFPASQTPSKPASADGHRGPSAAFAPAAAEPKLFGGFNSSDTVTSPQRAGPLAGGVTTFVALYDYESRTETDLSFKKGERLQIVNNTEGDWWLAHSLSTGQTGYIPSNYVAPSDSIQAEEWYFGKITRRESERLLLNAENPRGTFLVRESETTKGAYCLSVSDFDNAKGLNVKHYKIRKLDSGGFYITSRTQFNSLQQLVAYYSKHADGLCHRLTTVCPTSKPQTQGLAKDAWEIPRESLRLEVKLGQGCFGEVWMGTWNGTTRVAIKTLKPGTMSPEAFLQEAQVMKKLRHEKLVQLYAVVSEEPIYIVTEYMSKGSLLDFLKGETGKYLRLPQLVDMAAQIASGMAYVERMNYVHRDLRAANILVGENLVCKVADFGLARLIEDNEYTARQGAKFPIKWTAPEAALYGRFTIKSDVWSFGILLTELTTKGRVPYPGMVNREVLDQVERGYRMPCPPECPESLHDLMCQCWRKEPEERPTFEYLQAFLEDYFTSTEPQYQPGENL

Compound | IC50 [nM]
CCN(CC)CCOc1ccc(Nc2ncc3c(n2)N(C)C(=O)N(c2cc(NC(=O)CCc4ccc(O)cc4)ccc2Cl)C3)cc1 [Example 2-12, N-(4-Chloro-3-{7-[4-(2-diethylamino-ethoxy)-phenylamino]-1-methyl-2-oxo-1,4-dihydro-2H-pyrimido[4,5-d]pyrimidin-3-yl}-phenyl)-3-(4-hydroxy-phenyl)-propionamide; compound with acetic acid] | 1 to 15
CCN(CC)CCOc1ccc(Nc2ncc3c(n2)N(C)C(=O)N(c2cc(NC(=O)CCCc4ccccc4)ccc2Cl)C3)cc1 [Example 2-15, N-(4-Chloro-3-{7-[4-(2-diethylamino-ethoxy)-phenylamino]-1-methyl-2-oxo-1,4-dihydro-2H-pyrimido[4,5-d]pyrimidin-3-yl}-phenyl)-4-phenyl-butyramide] | 15 to 50
CCN(CC)CCOc1ccc(Nc2ncc3c(n2)N(C)C(=O)N(c2cc(NC(=O)C=Cc4ccccc4)ccc2Cl)C3)cc1 [Example 2-16, N-(4-Chloro-3-{7-[4-(2-diethylamino-ethoxy)-phenylamino]-1-methyl-2-oxo-1,4-dihydro-2H-pyrimido[4,5-d]pyrimidin-3-yl}-phenyl)-3-phenyl-acrylamide] | 1 to 15
CCN(CC)CCOc1ccc(Nc2ncc3c(n2)N(C)C(=O)N(c2cc(NC(=O)Cc4cccnc4)ccc2Cl)C3)cc1 [Example 2-21, N-(4-Chloro-3-{7-[4-(2-diethylamino-ethoxy)-phenylamino]-1-methyl-2-oxo-1,4-dihydro-2H-pyrimido[4,5-d]pyrimidin-3-yl}-phenyl)-2-pyridin-3-yl-acetamide] | 15 to 50
CCN(CC)CCOc1ccc(Nc2ncc3c(n2)N(C)C(=O)N(c2cc(NC(=O)c4ccc(OC)cc4)ccc2Cl)C3)cc1 [Example 2-7, N-(4-Chloro-3-{7-[4-(2-diethylamino-ethoxy)-phenylamino]-1-methyl-2-oxo-1,4-dihydro-2H-pyrimido[4,5-d]pyrimidin-3-yl}-phenyl)-4-methoxy-benzamide] | 1 to 15
CCN(CC)CCOc1ccc(Nc2ncc3c(n2)N(C)C(=O)N(c2cc(NC(=O)c4ccc(-c5ccccc5)cc4)ccc2Cl)C3)cc1 [Example 1, Biphenyl-4-carboxylic acid (4-chloro-3-{7-[4-(2-diethylamino-ethoxy)-phenylamino]-1-methyl-2-oxo-1,4-dihydro-2H-pyrimido[4,5-d]pyrimidin-3-yl}-phenyl)-amide] | 1 to 15
CCN(CC)CCOc1ccc(Nc2ncc3c(n2)N(C)C(=O)N(c2cc(NC(=O)C4CCCCCC4)ccc2Cl)C3)cc1 [Example 2-2, Cycloheptanecarboxylic acid (4-chloro-3-{7-[4-(2-diethylamino-ethoxy)-phenylamino]-1-methyl-2-oxo-1,4-dihydro-2H-pyrimido[4,5-d]pyrimidin-3-yl}-phenyl)-amide; compound with acetic acid] | 15 to 50
CCN(CC)CCOc1ccc(Nc2ncc3c(n2)N(C)C(=O)N(c2cc(NC(=O)CCc4cccnc4)ccc2Cl)C3)cc1 [Example 2-23, N-(4-Chloro-3-{7-[4-(2-diethylamino-ethoxy)-phenylamino]-1-methyl-2-oxo-1,4-dihydro-2H-pyrimido[4,5-d]pyrimidin-3-yl}-phenyl)-3-pyridin-3-yl-propionamide; compound with acetic acid] | 1 to 15
CCN(CC)CCOc1ccc(Nc2ncc3c(n2)N(C)C(=O)N(c2cc(NC(=O)c4ccc(C#N)cc4)ccc2Cl)C3)cc1 [Example 2-8, N-(4-Chloro-3-{7-[4-(2-diethylamino-ethoxy)-phenylamino]-1-methyl-2-oxo-1,4-dihydro-2H-pyrimido[4,5-d]pyrimidin-3-yl}-phenyl)-4-cyano-benzamide] | 1
CCN(CC)CCOc1ccc(Nc2ncc3c(n2)N(C)C(=O)N(c2cc(NC(=O)c4ccccc4)ccc2Cl)C3)cc1 [Example 2-6, N-(4-Chloro-3-{7-[4-(2-diethylamino-ethoxy)-phenylamino]-1-methyl-2-oxo-1,4-dihydro-2H-pyrimido[4,5-d]pyrimidin-3-yl}-phenyl)-benzamide] | 2.4

Reference: patent US7655651B2, “Amide derivatives of 3-phenyl-dihydropyrimido[4,5-d]pyrimidinones, their manufacture and use as pharmaceutical agents” (Hoffmann-La Roche Inc., priority 2004, dated 2010)
